Experimental data taken from patent US20240298643A1, “BENZIMIDAZOLE COMPOUND OR SALT THEREOF, PREPARATION METHOD THEREFOR AND USE THEREOF, AND INSECTICIDE AND ACARICIDE AND USE THEREOF” (QINGDAO KANGQIAO PESTICIDES AND CHEMICALS GROUP CO., LTD., priority 2021, published 2024).

Tested on: Tetranychus cinnabarinus
Experiment: acaricidal activity test, spraying kidney bean seedlings inoculated with mites
Format: in vivo
Conditions: sprayed on kidney bean seedlings, living mites counted after 72 hours, 25° C.
Description: This test example tested the acaricidal activity of the compounds prepared above, in particular against Tetranychus cinnabarinus, and a specific test process was as follows: • (1) compounds to be tested were dissolved with acetone, and the resulting solution was diluted with a 0.1 wt % Tween 80 aqueous solution to a desired concentration (see test examples 1-A to 1-D below in detail) to prepare medicaments, with the acetone content of not more than 5 wt %; • (2) one real leaf was removed from kidney bean seedlings grown to two real leaves, and the number of mites inoculated was investigated 24 hours after inoculation of Tetranychus cinnabarinus (the number of Tetranychus cinnabarinus inoculated for each kidney bean seedling was 50-150). The whole plants of three kidney bean seedlings were separately sprayed with the medicaments prepared in the step (1) by using a hand-held sprayer (the spray amount was 0.5 mL per plant). After the treatment, the kidney bean seedlings were placed in a constant temperature observation room (25° C.) for observation, the number of living mites was investigated after 72 hours, and the lethality was calculated: Lethality (%)=(the number of mites inoculated−the number of living mites after the medicaments are sprayed)/the number of mites inoculated×100.

SMILES | Lethality (6.25 mg/L) [%] | Lethality (25 mg/L) [%] | Lethality (100 mg/L) [%]
CCS(=O)(=O)n1c(-c2ccc(Cl)c(C(F)(F)F)c2)nc2ccccc21 [Compound 1-28] | 97 | 100 | 100
CCS(=O)(=O)n1c(-c2ccc(Cl)c(C(F)(F)F)c2)nc2cc(F)c(F)cc21 [Compound 1-57] | 92 | 100 | 100
CCCS(=O)(=O)n1c(-c2cc(C(F)(F)F)cc(C(F)(F)F)c2)nc2ccccc21 [Compound 1-254] | 97 | 100 | 100
CCS(=O)(=O)n1c(-c2ccccc2F)nc2ccccc21 [KC2, reference compound] | – | 49 | 98
CCS(=O)(=O)n1c(-c2ccc(F)c(C(F)(F)F)c2)nc2cc(F)c(F)cc21 [Compound 1-56] | 95 | 100 | 100
CCS(=O)(=O)n1c(-c2cc(Br)cc(OC(F)(F)F)c2)nc2ccccc21 [Compound 1-186] | 100 | 100 | 100
CS(=O)(=O)n1c(-c2cc(Cl)cc(C(F)(F)F)c2)nc2ccccc21 [Compound 1-133] | 99 | 100 | 100
CCS(=O)(=O)n1c(-c2cc(C(F)(F)F)cc(C(F)(F)F)c2)nc2cc(Cl)c(Cl)cc21 [Compound 1-265] | 100 | 100 | 100
CCS(=O)(=O)n1c(-c2cc(Cl)cc(OC(F)(F)F)c2)nc2ccccc21 [Compound 1-239] | 100 | 100 | 100
CCS(=O)(=O)n1c(-c2cc(Br)cc(C(F)(F)F)c2)nc2ccccc21 [Compound 1-214] | 97 | 100 | 100
CCS(=O)(=O)n1c(-c2ccc(Cl)cc2)nc2ccccc21 [KC4, reference compound] | – | 57 | 37
CCS(=O)(=O)n1c(-c2cc(F)cc(C(F)(F)F)c2)nc2ccccc21 [Compound 1-174] | 98 | 98 | 100
CCS(=O)(=O)n1c(-c2ccc(F)c(C(F)(F)F)c2)nc2ccccc21 [Compound 1-27] | 90 | 100 | 100
CCS(=O)(=O)n1c(-c2ccc(F)cc2)nc2ccccc21 [KC5, reference compound] | – | 40 | 66
CCS(=O)(=O)n1c(-c2cc(C#N)cc(C(F)(F)F)c2)nc2ccccc21 [Compound 1-218] | 98 | 99 | 100
CCS(=O)(=O)n1c(-c2cc(C(F)(F)F)cc(C(F)(F)F)c2)nc2ccccc21 [Compound 1-47] | 99 | 100 | 100
CCS(=O)(=O)n1c(-c2ccccc2Cl)nc2ccccc21 [KC3, reference compound] | – | 70 | 88
CCS(=O)(=O)n1c(-c2ccccc2)nc2ccccc21 [KC1, reference compound] | – | 52 | 82
CCS(=O)(=O)n1c(-c2cc([N+](=O)[O-])cc(C(F)(F)F)c2)nc2ccccc21 [Compound 1-235] | 99 | 99 | 100
CCS(=O)(=O)n1c(-c2cc(C(F)(F)F)cc(C(F)(F)F)c2)nc2cc(F)c(F)cc21 [Compound 1-257] | 98 | 100 | 100
CCS(=O)(=O)n1c(-c2cc(Cl)cc(C(F)(F)F)c2)nc2ccccc21 [Compound 1-213] | 99 | 100 | 100
CCCCS(=O)(=O)n1c(-c2cc(C(F)(F)F)cc(C(F)(F)F)c2)nc2ccccc21 [Compound 1-255] | 91 | 100 | 100
CCS(=O)(=O)n1c(-c2cc(Cl)cc(Cl)c2)nc2ccccc21 [KC6, reference compound] | – | 86 | 100
